Assay results reported in paper PMC12362587, “Untargeted Diversity-Oriented Synthesis for the Discovery of New Antitumor Agents: An Integrated Approach of Inverse Virtual Screening, Bioinformatics, and Omics for Target Deconvolution” (Journal of Medicinal Chemistry, 2025).

Assays:
[1] = biological target: T1, PPARγ-Ligand Binding Domain (human recombinant) (Homo sapiens, UniProt P37231); assay: PPARγ-LBD Ligand Screening Assay Kit (Cayman); details: PPARγ-LBD probe displacement, top concentration 30 μM; read-out: EC50 or IC50, peroxisome proliferator-activated receptor gamma
T1 construct: purchased Cayman
Protocol: The assay was performed in a volume of 50 μL in a 96-well plate. In the PPARγ-Ligand Binding Domain screening assay (Cayman, USA), a ligand of Peroxisome proliferator-activated receptor gamma (PPARγ) is conjugated to fluorescein and is used as a displacement probe. To evaluate the binding ability to the target, PPARγ-Ligand Binding Domain (human recombinant), PPARγ Probe – Green and the compounds were incubated in the dark for 1 h at room temperature. The compounds were added at different concentrations in the reaction buffer, starting from a final concentration of 30 μM. Buffer with the same amount of DMSO (1%) was used as a negative control. The fluorescence signals (excitation/emission, 490 nm/520 nm) were read using a PerkinElmer EnSpire multimode plate reader (PerkinElmer, Waltham, MA, USA). The experiments were performed in triplicate. The IC50 values were calculated using GraphPad Prism 8.0 software by nonlinear regression of dose–response inhibition.

human CB2R = human CB2R (Homo sapiens, UniProt P34972); assay: cAMP Hunter assay, functional activity at CB2R; type: cell-based; set-up: host or cells: CHO-K1; details: CHO cells expressing human CB2R, alone and with JWH133
Protocol: The curves show the effect of increasing concentrations of the compound on NKH-477-induced cAMP levels in stable CHO cells expressing the human CB2R. The effect of JWH-133 is reported as a reference compound. Data are reported as means ± standard error of three independent experiments conducted in triplicate and normalized considering the NKH-477 stimulus alone as 100% of the response as indicated in the experimental session. EC50 was determined by GraphPad Prism 9 as the concentration that provokes the response halfway between the baseline (bottom) and maximum response (top) of the fitted dose–response.
The functional activity at CB2Rs was evaluated using the cAMP Hunter assay with an enzyme fragment complementation chemiluminescent detection kit, as previously reported. Following the manufacturer’s instructions, this assay measured Gi-coupled cAMP modulation in CB2R-expressing cell lines (DiscoveRx, Fremont, CA). Briefly, CHO-K1 cells overexpressing the human CB2Rs were plated in a 96-well plate at a density of 10,000 cells per well and incubated overnight at 37 °C in 5% CO2. […] Following stimulation, the cells were lysed, and cAMP levels were detected according to the manufacturer’s protocol. Luminescence was measured using the GloMax Multi-Detection System (Promega, Italy). Results were expressed as mean ± SEM and derived from three independent experiments conducted in triplicate. […]

T1 sequence (P37231 238-503 limits assumed): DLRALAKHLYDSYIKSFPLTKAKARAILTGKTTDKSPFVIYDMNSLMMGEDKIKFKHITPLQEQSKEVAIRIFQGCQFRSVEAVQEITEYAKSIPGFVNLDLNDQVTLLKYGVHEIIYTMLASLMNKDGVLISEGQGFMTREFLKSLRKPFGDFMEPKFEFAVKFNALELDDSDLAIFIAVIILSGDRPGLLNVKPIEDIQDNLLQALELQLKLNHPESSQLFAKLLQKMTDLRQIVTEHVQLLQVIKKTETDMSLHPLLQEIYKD
human CB2R, sequence (P34972 whole entry): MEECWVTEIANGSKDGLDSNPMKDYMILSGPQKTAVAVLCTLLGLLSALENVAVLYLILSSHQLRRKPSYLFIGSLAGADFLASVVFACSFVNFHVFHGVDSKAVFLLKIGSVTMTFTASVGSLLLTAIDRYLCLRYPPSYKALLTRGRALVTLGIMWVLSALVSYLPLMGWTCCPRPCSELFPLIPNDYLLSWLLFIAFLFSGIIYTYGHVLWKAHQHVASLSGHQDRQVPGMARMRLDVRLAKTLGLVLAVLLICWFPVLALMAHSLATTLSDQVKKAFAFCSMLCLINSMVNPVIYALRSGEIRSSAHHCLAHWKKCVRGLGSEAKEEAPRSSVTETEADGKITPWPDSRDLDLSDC

Row | SMILES | IC50 [1] [µM] | functional activity at CB2R (NKH-477-induced cAMP levels) (human CB2R)
1 | CC(C)C[C@H]1C(=O)N(Cc2ccc(C(F)(F)F)cc2)c2ccccc2C(=O)N1Cc1ccc(C(F)(F)F)cc1 [Compound 31, (S)-3-Isobutyl-1,4-bis(4-(trifluoromethyl)benzyl)-3,4-dihydro-1H-benzo[e][1,4]diazepine-2,5-dione] | > 30 | 
2 | CC(C)C[C@@H](C(=O)OCc1ccccc1)N1Cc2ccccc2NC1=O [Compound 63, Benzyl (S)-4-Methyl-2-(2-oxo-1,4-dihydroquinazolin-3(2H)-yl)pentanoate] | > 30 | functional inverse agonist activity
